We go through 6 molecules from patent publication US8598313B2, “Compositions for ameliorating cell proliferative disorders and methods of making and using them” (priority 2010, dated 2013).

Test [1] concerns NCI H-460 human lung tumor cells. Put plainly: Cytotoxicity in NCI H-460 human lung tumor cells, MTT reduction. Type of test: cell-based. Here is the method: Cytotoxicity was measured in NCI H-460 human lung tumor cells with cell viability being determined by MTT reduction.^[23] Cells were seeded in 96-well plates at 6000 cells/well in 180 μL of medium. After 24 h, the test chemicals were dissolved in DMSO and diluted into medium without fetal bovine serum and then added at […]. DMSO was less than 0.5% of the final concentration. After 48 h, the medium was removed and cell viability determined.
On the technique in general: Tetrazolium dyes change colour on reduction, which living cells bring about.

The test system of test [2] is cancer cell lines. The conditions noted are these: cytotoxicity SAR; cited from earlier work.

For orientation: IC50 means the concentration at which inhibition is half-maximal. The low end stands for higher potency, the high end for lower potency. As for `COc1ccc(C[C@@H]2NC(=O)/C(C)=C/C3CSC(=N3)[C@@H](C)[C@@H](O)C[C@H](C)C[C@@H](C(C)(C)C)OC(=O)[C@H](C)N(C)C(=O)[C@H](C(C)C)N(C)C(=O)[C@H](C)N(C)C2=O)cc1` (stereo partly shown) [apratoxin G], the IC50 in test [1] (H-460 cancer cells, MTT, 48 h) was 0.014 µM. Also, the “reduction in activity compared to apratoxin F” value in test [1] (N-methyl isoleucine exchanged for N-methyl valine) was found to be 7 fold.

With `CC[C@H](C)[C@H]1C(=O)N2CCC[C@H]2C(=O)O[C@H](C(C)C)C[C@@H](C)C[C@H](O)[C@H](C)C2=N[C@@H](/C=C(\C)C(=O)N[C@@H](Cc3ccc(OC)cc3)C(=O)N(C)[C@@H](C)C(=O)N1C)CS2` [apratoxin C], the “loss of activity compared to apratoxin A” value in test [2] is reported as 2 fold.

Take `CC[C@H](C)[C@@H]1NC(=O)[C@H](C)N(C)C(=O)[C@H](Cc2ccc(OC)cc2)NC(=O)/C(C)=C/[C@H]2CSC(=N2)[C@@H](C)[C@@H](O)C[C@H](C)C[C@@H](C(C)(C)C)OC(=O)[C@@H]2CCCN2C1=O` [apratoxin B]: the “loss of activity compared to apratoxin A” value in test [2] is 30 to 40 fold.

Turning to apratoxin E, the “activity compared to apratoxin A” value in test [2] was “only a modest loss of activity”.

For the molecule `CC[C@H](C)[C@H]1C(=O)N2CCC[C@H]2C(=O)O[C@H]([C@@H](C)CC(C)(C)C)C[C@@H](C)C[C@H](O)[C@H](C)C2=N[C@@H](/C=C(\C)C(=O)N[C@@H](Cc3ccc(OC)cc3)C(=O)N(C)[C@@H](C)C(=O)N1C)CS2` [apratoxin D], in test [2], the “activity compared to apratoxin A” value is “roughly equivalent activity”.

(E)-34,35-dehydro-apratoxin A: the “loss of activity compared to apratoxin A” value in test [2] was 72-230 fold.
